Molecular target: TintPBP4 (pheromone binding protein 4)
Assay: fluorescence competitive binding assay, displacement of 1-NPN
Parameters: species or system Tryporyza intacta

Row | Ki | Structure (SMILES)
1 | 2970 nM | CCCC/C=C/CCCCCCCCCC=O [compound 1, E11-16: Ald]
2 | 2510 nM | CCCC/C=C\CCCCCCCCCC=O [compound 2, Z11-16: Ald]

Source: publication PMC7096405, “Field evaluation of sex pheromones and binding specificity of pheromone binding protein 4 in Tryporyza intacta (Lepidoptera: Crambidae)” (Scientific Reports, 2020)
